Tested on: high-fat-fed C57BL/6 mice
Test: High-fat-diet C57BL/6 mice, Compound 1 7.5 mg/kg with antagomiR-control or antagomiR-122
Format: in vivo
Experimental: C57BL/6 mice were fed a 50% high fat diet (HFD) for four weeks. The control cohort received three hydrodynamic tail vein injections of a 5 μg antagomiR-control and six i.p injections of saline over three weeks. A second cohort was hydrodynamic tail vein injected with 5 μg antagomiR-122 (the reverse complement that inhibits activity of miR-122) three times and i.p injections of saline six times over three weeks. A third cohort was injected i.p. with Compound 1 (7.5 mg/kg) twice a week plus antagomiR-control once a week over the course of 3 weeks. The final cohort was injected i.p. with Compound 1 (7.5 mg/kg) twice a week plus antagomiR-122 injections once a week over the course of 3 weeks.
High Fat diet fed mice. C57BL/6 male mice were fed for 8 weeks a 50% high fat diet (Envigo, DIETTD150235). All mice were kept in a pathogen-free facility, under a 12 h light/dark cycle. Research on mice was approved by the Hebrew University Institutional Animal Care and Ethics Committee.
Compound 1 and AntagomiR injections to mice. C57BL/6 male mice, 7-8 weeks old, or Sgp130FC, 9-month-old male mice, were injected i.p. with 7.5 mg/kg Compound 1 dissolved in saline and 3% DMSO. Saline was injected as control. Mice were hydrodynamic tail vain injected with antagomiR-122 or antagomiR-control (negative control) (5 μg/mouse in 1.5 ml saline). Mice were sacrificed according to the legend of the figure describing the experimental results and the livers, white adipose and skeletal muscle tissues were frozen in liquid nitrogen or in OCT embedded frozen blocks, for further RNA and histologic analysis. AntagomiRs were obtained from Sigma Aldrich, see Table 3.
Triglycerides and β-hydroxybutyrate quantification. To determine the liver and muscle lipid content, muscle and liver tissues (40-80 mg) were homogenized in 0.5 ml of chloroform: Tris solution (v/v, 1:1), the homogenate was transferred to 1 ml of chloroform: methanol solution (v/v, 2:1) centrifuged at 3000 rpm for 10 min. The organic phase was mixed with 5% Triton X100 in chloroform, dried and re-dissolved in water. After lipid extraction, TG concentration in samples was measured with Triglyceride Quantification Kit (BioVision), according to the manufactures instructions. β-hydroxybutyrate was determined utilizing commercial colorimetric kits (BioVision) directly from plasma samples.
In an effort to determine whether the mechanism of action of miR-122 and Compound 1 are aligned at the same pathway, an experiment was designed in which both molecules, together and each separately, were administered. In this study, mice were fed with a 50% HFD and therapy was initiated 4 weeks after the animals were already on a diet, to establish NASH prior to treatment. Therapies (antagomiRs given once a week, due to a prolonged half time, and RS twice weekly, due to a plasma t/2 of 2.7 hrs) were initiated after 4 weeks and given for 3 weeks. The mice were weighed from week 3 and therapies initiated a week later. […] The liver was further analyzed to assess lipotoxicity. […] A surrogate marker for energy expenditure, β-hydroxybutyrate, was also measured. A reduction in energy expenditure is associated with reduced miR-122, and energy expenditure increased upon treating with Compound 1.
Male C57BL/6J mice, 7 to 8 weeks old, were housed randomly in standard cages and were fed a HFD, or atherogenic diet (consisting 1% Chol and 0.5% cholic acid, see also Table 3). All mice had free access to water during the experimental period. During the feeding period body weight was monitored every 3 days. In the HFD experiment, after 4 or 6 weeks, the resultant obese mice were treated with antagomiR-122 ([…] once a week for 3 weeks), or i.p. injected with Compound 1 (RORα agonist, 7.5 mg/kg twice a week for 3 weeks; or 15 mg/kg 3 times a week for 3 weeks). The obese control (HFD) group was administered only saline with DMSO and antagomiR-control. […]

Question: How did the final body weight (5 μg antagomiR hydrodynamic tail vein injection three times over three weeks, HFD) turn out when “antagomiR-122: small synthetic RNA, 2'-O-Me/phosphorothioate modified, cholesterol-linked, reverse complement that inhibits activity of miR-122 (antisense ACAAACACCAUUGUCACAC; 2'-O-methyl, phosphorothioate, cholesterol-linked, pattern not given here) [reference compound]” was run?
Answer: 32 g

Question: What about the “TG content in the muscle” value (50% HFD, treatment for 3 weeks) of the same substance?
Answer: increased
